This note sets out measurements from patent publication US20260077055A1, “COMPOSITIONS OF POLYPLEXES AND SAPONINS” (SAPREME TECHNOLOGIES B.V., priority 2022, published 2026).

This experiment concerns A2058 cancer cells. Nature of the experiment: pEGFP-N3 polyplex transfection of A2058 cells, light microscopy. The following applies: 72 h; SO1861-EMCH or SO1861 = 40 nM supplemented to PAMAM G5-(PEG N3)3.5 polyplexes. The format is cell-based. As to the method:
Spectrophotometry: Concentrations were determined using either a Thermo Nanodrop 2000 spectrometer or Perkin Elmer Lambda 365 Spectrophotometer. DLS measurements: DLS measurements were performed on a Malvern Nano ZS (Malvern Instruments, U.K.), operating at 633 nm with a 173° scattering angle, at 25 or 37° C. DLS mean diameters were obtained from the intensity particle size distribution provided by Malvern Zetasizer Software. DLS histograms were obtained from the intensity particle size distributions. Zeta-potential: The zeta-potential values of the polyplexes were obtained by laser doppler anemometry (LDA), measuring the mean electrophoretic mobility (Malvern Zetasizer Nano ZS, Malvern Instruments, U.K.). Measurements were performed in 10 mM HEPES pH 7.1, 150 mM NaCl. TEM measurements: TEM measurements were performed on a JEOL JEM-1011 operated at 100 kV electron microscope, equipped with a camera S5 MegaView G2. […] Infrared Spectroscopy: FT-IR spectra were recorded on a Bruker Vertex 70v, equipped with a RockSolid interferometer, after preparing the samples (1-2 mg) as KBr pellets. […] NMR Spectroscopy: 1H NMR spectra were recorded on a 11.7 T Bruker DRX-500 spectrometer. […] Experiments were recorded acquiring 64-512 scans, with a pre-scan delay (d1) of 12 s, and an acquisition time (aq) of 4 s at 300 K. 13C NMR spectrum was recorder on a 9.39 T Varian Innova 400 spectrometer. […]

The structures appear in SMILES notation.

With `CC(=O)OC1C(C)OC(OC2C(C)OC(OC(=O)[C@]34CCC(C)(C)CC3C3=CCC5[C@@]6(C)CC[C@H](OC7OC(C(=O)O)C(O)C(OC8OCC(O)C(O)C8O)C7OC7OC(CO)C(O)C(O)C7O)[C@@](C)(/C=N/NC(=O)CCCCCN7C(=O)C=CC7=O)C6CC[C@@]5(C)[C@]3(C)C[C@H]4O)C(OC3OC(C)C(OC4OCC(O)C(OC5OC(CO)C(O)C(O)C5O)C4O)C(O)C3O)C2O)C(O)C1OC1OCC(O)C(O)C1O` (stereo partly shown) [SO1861-EMCH], the “pEGFP-N3 transfection (eGFP expression)” value is recorded as “marginal transfection”.
